# Legend:
# type 2 5α-reductase [1] = target: T1, type 2 5α-reductase (Homo sapiens, UniProt P31213); test: Kinetic constants of baculovirus-expressed type 2 5α-reductase under the standard assay conditions; type: biochemical
# T1 construct: made in house
# T1 sequence (P31213 1-254): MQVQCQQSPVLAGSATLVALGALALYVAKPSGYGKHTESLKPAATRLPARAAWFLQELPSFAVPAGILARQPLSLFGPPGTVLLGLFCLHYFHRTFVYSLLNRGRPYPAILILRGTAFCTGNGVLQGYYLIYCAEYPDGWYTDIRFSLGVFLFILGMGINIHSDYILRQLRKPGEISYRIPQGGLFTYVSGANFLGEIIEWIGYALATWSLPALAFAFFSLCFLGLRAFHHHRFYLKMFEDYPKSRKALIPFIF
# Text: Ethanol is included at 1% final concentration as the vehicle for introduction of inhibitors. […] A unit of enzyme activity was defined as 1 pmol product/min, and is equal to 444 fmol enzyme under these conditions.
# When tissue extracts are the source of enzyme, the quenched reactions are clarified by centrifugation at 10,000×g before analysis.
# The molecular weight was taken to be about 30,000 in estimating enzyme purity.
# [2] = tested on: native human prostate enzyme; details: read-out: Km (Faller et al.), neutral pH; cited from earlier work
# [3] = tested on: human prostate (type 2) isozyme; details: cited from earlier work
# [4] = tested on: human skin (type 1) isozyme; details: cited from earlier work
# dihydrotestosterone = details: after withdrawal of finasteride; cited from earlier work
# type 2 5α-reductase [5] = target: T1, type 2 5α-reductase; test: Progress curves of DHT formation, time course of inhibition of baculovirus expressed type 2 5α-reductase; type: biochemical; details: 20 nM inhibitor, pH 7.2, 37° C.
# Experimental: Ethanol is included at 1% final concentration as the vehicle for introduction of inhibitors. The rate of production of [^3 H]dihydrotestosterone is approximately constant for up to 2 hours or 10% consumption of substrate. A unit of enzyme activity was defined as 1 pmol product/min, and is equal to 444 fmol enzyme under these conditions.
# After quenching the reactions with an equal volume, or more, of water containing 1% trifluoroacetic acid, the [^3 H]dihydrotestosterone is isolated by direct injection onto a reverse phase C-18 column (Vydac 4.6×250 mm, 300 Å, 5 micron), which is run in an isocratic system of 40% water (containing 0.1% trifluoroacetic acid) and 60% methanol at 1 mL/min. […] The effluent containing the [^3 H]dihydrotestosterone peak (6 mL) is collected in a liquid scintillation vial and counted with AQUASOL 2 (14 mL, New England Nuclear) with an efficiency of 0.309. […]
# The native human enzyme was from prostate (type 2) or scalp (type 1) tissue, and the recombinant human enzymes were produced by the baculovirus expression system of Anderson, et al. (Chan, H K, Geissler, W M, Anderson, S, Sex Hormones and Antihormones in Endocrine Dependent Pathology: Basic and Clinical Aspects, M. Motta and M. Serio, eds., Elsevier Science 1994). […] Enzyme concentrations were determined by titration with finasteride, or [^3 H]finasteridem, or from catalytic activity using kcat and Km values. […]
compound,measurement,setting,value
C[C@]12CC[C@H]3[C@@H](CCC4=CC(=O)CC[C@@]43C)[C@@H]1CC[C@@H]2O [testosterone],Km,"type 2 5α-reductase [1]; baculovirus-expressed type 2, pH 7.2, 37° C., read-out: Km for testosterone",0.0246 ± 0.0007 µM
same,turnover number kcat,"type 2 5α-reductase [1]; type 2, pH 7.2, 37° C., by titration with finasteride",0.075 ± 0.006 s⁻¹
same,Km,[2],0.02 ± 0.003 µM
"CC(C)(C)NC(=O)[C@H]1CC[C@H]2[C@@H]3CC[C@H]4NC(=O)C=C[C@]4(C)[C@H]3CC[C@]12C [finasteride, 17β-(N-tert-butylcarbamoyl)-3-oxo-4-aza-5α-androst-1-ene-3-one]",rate constant of binding to the human prostate isozyme,"[3]; Faller et al., slow-binding",270000 M⁻¹ s⁻¹
same,"inhibition type, human prostate (type 2) isozyme",[3]; Harris et al.,slow-binding inhibitors
same,"inhibition of type 2 isozyme, in words",[3]; predominates in the prostate,potently inhibited
same,"inhibition of human skin (type 1) isozyme at clinical doses, in words",[4]; at doses employed in the treatment of BPH,not a significant inhibitor
same,"sensitivity of type 1 isozyme, in words",[4]; sebaceous glands of most regions of skin tissue,relatively insensitive
same,type 1 rate constant as percent of the rate constant against the prostate isozyme,[4]; type 1 vs type 2,about 1%
same,time required for dihydrotestosterone to return to basal levels after withdrawal,dihydrotestosterone,as long as two weeks
"CCN(CC)C(=O)[C@H]1CC[C@H]2[C@@H]3CC[C@H]4OC(=O)C=C[C@]4(C)[C@H]3CC[C@]12C [L-682,299, 17β-(N-diethyl)carbamoyl-4-oxa-5α-androst-1-en-3-one]",velocity at infinite-time,type 2 5α-reductase [5],essentially zero
same,inhibition of the enzyme at infinite time,type 2 5α-reductase [5]; inhibition developed slowly with time,total inhibition
